17 compounds from PubChem BioAssay (NCI) can be followed below.

Values joined by “and” are separate entries in the source; they are usually repeats but may differ in a detail not shown here. Equal values may be shown once.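 Compound exposure: 48 hours, 5 concentrations, 96-well plates. GI50 marks 50% less growth. TGI: concentration producing complete growth inhibition.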 Some results are limits rather than exact numbers.

One assay relates to EKVX NSCLC. The experiment in a line: growth of human tumour cells (NCI), 48 h.
For `NS(=O)(=O)c1ccc(N(/C=C/C(=O)C(F)(F)F)CC(=O)c2ccc(Cl)cc2)cc1`, the GI50 is 54.2 µM and the TGI is above 100 µM.

As to `C1CSCCSCCS1`, the TGI was above 100 µM.

With `CCN(CC)CCOc1ccc(/C=C2\CC3C4CC=C5C[C@@H](O)CC[C@]5(C)C4CC[C@]3(C)C2=O)cc1OC` (some centres not stated), the GI50 was 9.56 µM and the TGI was above 52.1 µM.

Compound `O=C(CC(O)(C(F)(F)F)C(F)(F)F)c1cc(CC(=O)C(O)(C(F)(F)F)C(F)(F)F)cc(CC(=O)C(O)(C(F)(F)F)C(F)(F)F)c1` came in with a TGI above 9.06 µM.

The compound `O=c1c2ccccc2sc2cccc(NCCCN3CCN(CCCNc4cccc5sc6ccccc6c(=O)c45)CC3)c12` gave a TGI above 100 µM.

`CC1(C)OCCn2c1nc1c(N3CCOCC3)nc(-c3cnc(N)nc3)nc12`: the GI50 is 0.16 µM and the TGI is 2.64 µM.

In turn, `CC1=CC(=O)[C@@H](O)[C@]2(C)[C@H]3[C@@]4(O)OC[C@]35[C@H]([C@@H](C)[C@H]4O)[C@@H](O)C(=O)O[C@@H]5C[C@@H]12` came in with a TGI of 6.31 µM.

On to `O=C(c1c(F)ccc(NS(=O)(=O)N2CC[C@@H](F)C2)c1F)c1c[nH]c2ncc(-c3cnc(C4CC4)nc3)cc12`, for which the GI50 was > 10 µM and 9.15 µM; the TGI is > 10 µM and 51.5 µM.

For `O=C(c1ccc(Cl)cc1)c1cnc(Nc2ccccc2Cl)s1`, the TGI was found to be 50.5 µM.

The subject of another assay is TK-10 renal. The experiment in a line: growth of human tumour cells (NCI), 48 h.
As for `O=C(c1ccc(F)c(F)c1Nc1ccc(I)cc1F)N1CC(O)([C@@H]2CCCCN2)C1`, the GI50 is 0.271 µM; the TGI is 14.8 µM and > 10 µM.

In the case of `Oc1cc(O)c2c(c1)OC(c1ccc(O)c(O)c1)C(OC1(c3cc(O)c(O)c(O)c3)Oc3cc(O)cc(O)c3C(O)C1O)C2` (configuration not stated), the TGI was above 100 µM.

Consider `COC12C=C/C(=C(/C(=O)OCc3ccncc3)C(=O)CCCCCCCCC3(OC)C=C/C(=C(/C(=O)OCc4ccncc4)C(=O)CCCCCCCC1)O3)O2`, for which the GI50 is 1.6 µM and the TGI came out at 3.67 µM.

In the case of `CCOc1ccc2nc(S/C(=C/C=C(C#N)C#N)c3ccc(C)cc3)sc2c1`, the GI50 is 27.2 µM and the TGI is 94.6 µM.

In the case of `COc1cc(CNCCCN2C(=O)c3ccc4c5c(ccc(c35)C2=O)C(=O)N(CCCNCc2cc(OC)c(OC)c(OC)c2)C4=O)cc(OC)c1OC`, the GI50 is 0.416 µM and the TGI turned out to be 1.32 µM.

With `Cc1nc2cnc(N)c(C#Cc3cncc(C(=O)Nc4ccc(CN5CCN(C)CC5)c(C(F)(F)F)c4)c3)c2nc1C`, the GI50 is 0.496 µM and the TGI is 3.2 µM.

`CC(=O)OC12c3ccccc3-c3ccccc3C1C1C(=O)N(C)C(=O)C12Cl` (configuration not stated) gave a TGI above 10 µM.

As to `Cc1csc(Nc2nc(-c3cccc(Br)c3)nc(C(Cl)(Cl)Cl)n2)n1`, the GI50 was 2.25 µM and the TGI was above 100 µM.

With `NS(=O)(=O)c1ccc(N(/C=C/C(=O)C(F)(F)F)CC(=O)c2ccc(Cl)cc2)cc1`, the GI50 is 29.7 µM and the TGI stood at 87.8 µM.

`C1CSCCSCCS1`: the TGI was above 100 µM.

For the compound `CCN(CC)CCOc1ccc(/C=C2\CC3C4CC=C5C[C@@H](O)CC[C@]5(C)C4CC[C@]3(C)C2=O)cc1OC` (some centres not stated), the GI50 was 9.94 µM and the TGI amounted to 21.5 µM.

In turn, `O=C(CC(O)(C(F)(F)F)C(F)(F)F)c1cc(CC(=O)C(O)(C(F)(F)F)C(F)(F)F)cc(CC(=O)C(O)(C(F)(F)F)C(F)(F)F)c1` returned a TGI of 8.36 µM.

`O=c1c2ccccc2sc2cccc(NCCCN3CCN(CCCNc4cccc5sc6ccccc6c(=O)c45)CC3)c12`: the TGI was above 100 µM.

On to `CC1(C)OCCn2c1nc1c(N3CCOCC3)nc(-c3cnc(N)nc3)nc12`, for which the GI50 is 0.109 µM and the TGI was found to be 0.676 µM.

Turning to `CC1=CC(=O)[C@@H](O)[C@]2(C)[C@H]3[C@@]4(O)OC[C@]35[C@H]([C@@H](C)[C@H]4O)[C@@H](O)C(=O)O[C@@H]5C[C@@H]12`, the TGI was found to be 7.76 µM.

For `O=C(c1c(F)ccc(NS(=O)(=O)N2CC[C@@H](F)C2)c1F)c1c[nH]c2ncc(-c3cnc(C4CC4)nc3)cc12`, the GI50 was 3.53 µM and 8.03 µM; the TGI is above 66.9 µM.

In turn, `O=C(c1ccc(Cl)cc1)c1cnc(Nc2ccccc2Cl)s1` gave a TGI of 34.9 µM.

For another assay, the system named is SF-295 CNS. Kind of assay: growth of human tumour cells (NCI), 48 h.
As to `O=C(c1ccc(F)c(F)c1Nc1ccc(I)cc1F)N1CC(O)([C@@H]2CCCCN2)C1`, the GI50 was 15.7 µM and > 10 µM; the TGI was 32.4 µM and > 10 µM.

For the compound `Oc1cc(O)c2c(c1)OC(c1ccc(O)c(O)c1)C(OC1(c3cc(O)c(O)c(O)c3)Oc3cc(O)cc(O)c3C(O)C1O)C2` (configuration not stated), the TGI was above 100 µM.

On to `COC12C=C/C(=C(/C(=O)OCc3ccncc3)C(=O)CCCCCCCCC3(OC)C=C/C(=C(/C(=O)OCc4ccncc4)C(=O)CCCCCCCC1)O3)O2`, for which the GI50 was 0.899 µM and the TGI was 3.29 µM.

As to `CCOc1ccc2nc(S/C(=C/C=C(C#N)C#N)c3ccc(C)cc3)sc2c1`, the GI50 is 22.8 µM and the TGI stood at 60.8 µM.

As for `COc1cc(CNCCCN2C(=O)c3ccc4c5c(ccc(c35)C2=O)C(=O)N(CCCNCc2cc(OC)c(OC)c(OC)c2)C4=O)cc(OC)c1OC`, the GI50 is 0.517 µM and the TGI was determined as 1.55 µM.

Consider `Cc1nc2cnc(N)c(C#Cc3cncc(C(=O)Nc4ccc(CN5CCN(C)CC5)c(C(F)(F)F)c4)c3)c2nc1C`, for which the GI50 was 3.02 µM and the TGI was 19.6 µM.

Turning to `CC(=O)OC12c3ccccc3-c3ccccc3C1C1C(=O)N(C)C(=O)C12Cl` (configuration not stated), the TGI is above 10 µM.

Regarding `Cc1csc(Nc2nc(-c3cccc(Br)c3)nc(C(Cl)(Cl)Cl)n2)n1`, the GI50 was 2.17 µM and the TGI is above 100 µM.

With `NS(=O)(=O)c1ccc(N(/C=C/C(=O)C(F)(F)F)CC(=O)c2ccc(Cl)cc2)cc1`, the GI50 is 26.2 µM and the TGI came to 74.4 µM.

Compound `C1CSCCSCCS1` returned a TGI above 100 µM.

In the case of `CCN(CC)CCOc1ccc(/C=C2\CC3C4CC=C5C[C@@H](O)CC[C@]5(C)C4CC[C@]3(C)C2=O)cc1OC` (some centres not stated), the GI50 is 2.6 µM and the TGI is 10.3 µM.

`O=C(CC(O)(C(F)(F)F)C(F)(F)F)c1cc(CC(=O)C(O)(C(F)(F)F)C(F)(F)F)cc(CC(=O)C(O)(C(F)(F)F)C(F)(F)F)c1` showed a TGI of 4.47 µM.

In turn, `O=c1c2ccccc2sc2cccc(NCCCN3CCN(CCCNc4cccc5sc6ccccc6c(=O)c45)CC3)c12` came in with a TGI above 100 µM.

Take `CC1(C)OCCn2c1nc1c(N3CCOCC3)nc(-c3cnc(N)nc3)nc12`: the GI50 was 0.213 µM and the TGI turned out to be 1.92 µM.

As to `CC1=CC(=O)[C@@H](O)[C@]2(C)[C@H]3[C@@]4(O)OC[C@]35[C@H]([C@@H](C)[C@H]4O)[C@@H](O)C(=O)O[C@@H]5C[C@@H]12`, the TGI amounted to 3.7 µM.

For the compound `O=C(c1c(F)ccc(NS(=O)(=O)N2CC[C@@H](F)C2)c1F)c1c[nH]c2ncc(-c3cnc(C4CC4)nc3)cc12`, the GI50 was 5.87 µM and 4.71 µM; the TGI was > 10 µM and 33.5 µM.

The compound `O=C(c1ccc(Cl)cc1)c1cnc(Nc2ccccc2Cl)s1` showed a TGI of 44.3 µM.
